Data as given in patent US8512789B2, “High-potency sweetener composition with dietary fiber and compositions sweetened therewith” (The Coca-Cola Company, priority 2005, dated 2013).

Legend:
[1] = Sensory evaluation of sweetness linger by a panel of experts; assay type: in vivo; design: key: 0=no sweetness linger; 1=very slight sweetness linger; 2 slight sweetness linger; 3 moderate sweetness linger; 4=moderately high sweetness linger; 5 high sweetness linger
Protocol: In a particular embodiment, a panel of assessors is used to measure the reduction of sweetness linger. Briefly described, a panel of assessors (generally 8 to 12 individuals) is trained to evaluate sweetness perception and measure sweetness at several time points from when the sample is initially taken into the mouth until 3 minutes after it has been expectorated. […] A decrease in score for a time point measured after the sample has cleared the mouth indicates there has been a reduction in sweetness perception.
The panel of assessors may be trained using procedures well known to those of ordinary skill in the art. In a particular embodiment, the panel of assessors may be trained using the Spectrum™ Descriptive Analysis Method (Meilgaard et al, Sensory Evaluation Techniques, 3rd edition, Chapter 11). Desirably, the focus of training should be the recognition of and the measure of the basic tastes; specifically, sweet. […]
Sensory evaluation of the samples prepared in Example Set C was carried out under the following protocol, similar to that described hereinabove. […] Immediately upon sensing maximal sweetness, the sample was expectorated, the mouth was rinsed with water and the rate of sweetness decay (“Sweetness Linger”) was measured, where attention was focused on the sweetness 3-4 min after the water rinse. […]

[2] = Rate of dissolution of rebaudioside A polymorph and amorphous forms in H2O at 25° C.; assay type: physicochemical

Substance | Sweetness Linger rating ([1]; Example Set G: citric acid/potassium citrate composition equivalent to diet lemon-lime beverage, 400 ppm REBA base (sugar control 8 g/100 ml), scale 0-5, sweetness 3-4 min after water rinse) | Sweetness Linger rating ([1]; Example Set H: carbon-treated water with phosphoric acid (75%), pH 2.4-2.5, REBA base (sugar control 10 g/100 ml), scale 0-5) | Rate of dissolution in H2O at 25° C. [2] | Rate of dissolution in H2O at 25° C. (in words) [2]
rebaudioside A | 5 | 5 | – | –
rebaudioside A [Form 1] | – | – | (<0.2%/ %/60 minutes | Very low
rebaudioside A [Form 2] | – | – | – | Intermediate
rebaudioside A [Form 3] | – | – | (>30%/ %/5 minutes | High
rebaudioside A [Form 4] | – | – | (>35%/ %/5 minutes | High
